Measurements published in patent US20230190835A1, “PROBIOTIC BACTERIA FOR TREATING ALZHEIMER'S DISEASE” (RRW B.V., priority 2020, published 2023).

System: C. elegans nematode strain with inducible amyloid-β accumulation (CL4176)
Test: Alzheimer's disease paralysis assay
Assay type: in vivo
Text: The effect of probiotic bacteria and their combinations with other active agents has been studied in C. elegans nematode strains as an animal model for amyloidoses such as Alzheimer's disease. These strains accumulate amyloid-β peptides that form plaques in the nematodes and lead to paralysis of the animals. In certain strains, such as strain CL4176, Aβ accumulation occurs only in response to heat shock. Thus, the Alzheimer's disease pattern is inducible in these strains. The number of paralyzed nematodes after a certain period of time following induction of Aβ accumulation indicates the extent of Alzheimer's disease. Thus, the effect of certain substances to which the nematodes are exposed on the number of paralyzed animals is a measure of the anti-Alzheimer effect of these substances.
Nematodes of strain CL4176 were synchronized at the young larval stage and allowed to grow to the L4 stage on normal growth medium for 72 h at 16° C. The probiotic bacteria to be tested were added to the growth medium. Then the nematodes were exposed to the test substance and the temperature was increased to 25° C. This heat shock induced Aβ accumulation, simulating the onset of Alzheimer's disease. Approximately every 24 h, the number of animals that were still mobile and those that were paralyzed as a result of Aβ accumulation was determined.
C. elegans of strain CL4176 were exposed to a mixture of different probiotic bacteria at a bacterial concentration of 50 cfu (colony-forming units) in this assay. The bacterial mixture contained the following bacterial species: Enterococcus faecium, Bifidobacterium longum, Streptococcus thermophilus, Lactobacillus acidophilus, Lactobacillus plantarum and Bifidobacterium breve. […] In another series of tests, the nematodes were additionally treated with cannabidiol (CBD).
The two probiotic bacterial strains Lactobacillus rhamnosus and Lactobacillus plantarum were allowed to grow to stationary phase and mixed with the normal diet of nematodes (OP50) E. coli bacteria). C. elegans of strain CL4176 at L4 larval stage were exposed to the probiotic bacteria and other active agents in the induction of Aβ accumulation by increasing the temperature to 25° C. The number of paralyzed animals was checked every 24 h and determined after 96 h.
In the described Alzheimer's disease animal model assay, the effect of the bacterial strain Pseudomonas fluorescens was tested. Upon induction of Aβ accumulation by increasing temperature to 25° C., nematodes were exposed to Pseudomonas fluorescens bacteria, curcumin or CBD, or a combination of the bacteria and the active agent. The number of paralyzed nematodes was determined 96 h after induction of Aβ accumulation.

CCCCCc1cc2c(c(O)c1C(=O)O)[C@@H]1C=C(C)CC[C@H]1C(C)(C)O2 [THCA, delta-9-tetrahydrocannabinolic acid]
number of paralyzed nematodes (60 μl, 96 h, FIGS. 3 and 4): reduced

Lactobacillus plantarum
paralysis due to Aβ accumulation (bacteria grown to stationary phase, mixed with OP50 E. coli diet, 96 h, FIGS. 3 and 4): reduction in paralysis
prevention of the effects of Aβ accumulation by combination of bacterium with active agents (stationary-phase bacteria combined with curcumin, CBD, THCA or combinations thereof, 96 h, FIGS. 3 and 4): significant to synergistic prevention of the effects of Aβ accumulation

C=C(C)[C@@H]1CCC(C)=C[C@H]1c1c(O)cc(CCCCC)cc1O [CBD, cannabidiol]
number of paralyzed nematodes (0.08% (v/v), 96 h, FIGS. 3 and 4): reduced
paralytic nematodes, individually (Example 3, 96 h after induction of Aβ accumulation, FIGS. 7 and 8): reduction in paralytic nematodes
effect of combination with Pseudomonas fluorescens (combination of Pseudomonas fluorescens and active agent, 96 h after induction of Aβ accumulation, FIGS. 7 and 8): strong synergistic increase in effect
effect of additional treatment with the active agent on the effect of the probiotic bacterial mixture (in combination with probiotic bacterial mixture, 72 h after induction of Aβ accumulation, FIG. 1): significantly increased the effect of probiotic bacteria
